Like-named read-outs stand apart in the source and are kept apart here.
How the values were obtained:
CCK-B receptors = conditions: brain; cited from earlier work
[1] = rat, brain synaptosomal fraction; cited from earlier work
CCK-A receptors = conditions: pancreas, gallbladder, colon; cited from earlier work
CCK receptor (pancreas) = biological target: T1, CCK receptor (pancreas) (Rattus norvegicus, UniProt P30551); experiment: 125I-CCK receptor binding (pancreas); design: species or system rat (male Sprague-Dawley); conditions: for effect on the 125I-CCK receptor binding assay: added as protease inhibitor
T1 construct: The whole pancreas was dissected free of fat tissue and was homogenized; from tissue; host or cells: rat pancreas (male Sprague-Dawley), washed membrane pellet of homogenate
T1 sequence (P30551 1-444): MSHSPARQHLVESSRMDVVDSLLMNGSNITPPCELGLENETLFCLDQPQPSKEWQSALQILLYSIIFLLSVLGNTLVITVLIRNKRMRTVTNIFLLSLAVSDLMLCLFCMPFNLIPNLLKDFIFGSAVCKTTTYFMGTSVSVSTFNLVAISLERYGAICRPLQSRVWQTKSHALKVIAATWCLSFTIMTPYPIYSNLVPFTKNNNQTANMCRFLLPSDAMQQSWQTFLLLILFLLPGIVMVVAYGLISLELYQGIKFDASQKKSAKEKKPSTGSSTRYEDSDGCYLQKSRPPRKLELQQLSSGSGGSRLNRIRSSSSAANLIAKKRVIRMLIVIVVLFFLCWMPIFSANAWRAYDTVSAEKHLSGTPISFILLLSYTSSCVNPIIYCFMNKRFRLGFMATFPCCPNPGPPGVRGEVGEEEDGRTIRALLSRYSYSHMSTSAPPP
Description: 1. CCK receptor binding (pancreas)
CCK-33 was radiolabeled with ^125 I-Bolton Hunter reagent (2000 Ci/mmole) as described by Sankara et al. (J. Biol. Chem. 254: 9349-9351, 1979). Receptor binding was performed according to Innis and Snyder (Proc. Natl. Acad. Sci. 77: 6917-6921, 1980) with the minor modification of adding the additional protease inhibitors, phenylmethane sulfonyl fluoride and o-phenanthroline. The latter two compounds have no effect on the ^125 I-CCK receptor binding assay.
Male Sprague-Dawley rats (200-350 g) were sacrificed by decapitation. The whole pancreas was dissected free of fat tissue and was homogenized in 20 volumes of ice-cold 50 mM, Tris HCl (pH 7.7 at 25° C.) with a Brinkmann Polytron PT 10. The homogenates were centrifuged at 48,000 g for 10 min. Pellets were resuspended in Tris Buffer, centrifuged as above and resuspended in 200 volumes of binding assay buffer (50 mM Tris HCl, pH 7.7 at 25° C., 5 mM dithiothrietol, 0.1 mM bacitracin, 1.2 mM phenylmethane sulfonyl fluoride and 0.5 mM o-phenanthroline). […] All assays were run in duplicate or triplicate. The reaction mixtures were incubated at 37° C. for 30 minutes and centrifuged in a Beckman Microfuge (4 minutes) immediately after adding 1 ml of ice-cold incubation buffer. The supernatant was aspirated and discarded, pellets were counted with a Beckman gamma 5000. For Scatchard analysis (Ann. N.Y. Acad. Sci. 51: 660, 1949), ^125 I-CCK-33 was progressively diluted with increasing concentrations of CCK-33.

CCK receptor (brain) = biological target: T2, CCK receptor (brain) (Cavia porcellus, UniProt H0VZC5); experiment: 125I-CCK receptor binding (brain); design: species or system guinea pig (male Hartley); conditions: guinea pig cerebral cortex, 125I-CCK-33, 25° C., 2 hours
T2 construct: Cerebral cortex was dissected and used as a receptor source; from tissue; host or cells: guinea pig cerebral cortex (male Hartley), washed membrane pellet of homogenate
Description: 2. CCK Receptor Binding (Brain)
CCK-33 was radiolabeled and the binding was performed according to the description for the pancreas method with modification according to Saito et al. (J. Neurochem. 37, 483-490, 1981).
Male Hartley guinea pigs (300-500 g) were sacrificed by decapitation and the brains were removed and placed in ice-cold 50 mM, Tris HCl plus 7.58 g/l Trizma-7.4 (pH 7.4 at 25° C.). Cerebral cortex was dissected and used as a receptor source. Each gram of fresh guinea pig brain tissue was homogenized in 10 ml of Tris Trizma buffer with a Brinkman polytron PT-10. The homogenates were centrifuged at 42,000 g for 15 min. […] All assays were run in duplicate or triplicate. The reaction mixtures were incubated at 25° C. for 2 hours and centrifuged in a Beckman Microfuge (4 minutes) immediately after adding 1 ml of ice-cold incubation buffer. The supernatant was aspirated and discarded, pellets were counted with a Beckman gamma 5000.

T2 sequence (H0VZC5 entry or part of it): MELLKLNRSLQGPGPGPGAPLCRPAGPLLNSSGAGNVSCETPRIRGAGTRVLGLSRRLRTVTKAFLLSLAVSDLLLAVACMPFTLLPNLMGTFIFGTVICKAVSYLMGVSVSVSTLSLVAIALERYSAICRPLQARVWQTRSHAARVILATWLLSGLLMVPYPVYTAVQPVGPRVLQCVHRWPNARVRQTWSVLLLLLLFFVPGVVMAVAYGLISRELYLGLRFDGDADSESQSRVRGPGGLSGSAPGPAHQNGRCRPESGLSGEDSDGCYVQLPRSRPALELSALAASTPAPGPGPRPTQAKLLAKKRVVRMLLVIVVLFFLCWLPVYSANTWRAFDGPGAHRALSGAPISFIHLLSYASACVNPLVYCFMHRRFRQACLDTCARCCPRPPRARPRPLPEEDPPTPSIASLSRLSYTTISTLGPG

Molecule	affinity for CCK-B receptors (CCK-B receptors)	affinity for CCK-A receptors (CCK-A receptors)	also measured
CSCC[C@H](NC(=O)[C@H](Cc1ccc(OS(=O)(=O)O)cc1)NC(=O)[C@@H](N)CC(=O)O)C(=O)NCC(=O)N[C@@H](Cc1c[nH]c2ccccc12)C(=O)N[C@@H](CCSC)C(=O)N[C@@H](CC(=O)O)C(=O)N[C@@H](Cc1ccccc1)C(N)=O [CCK-8s, H-Asp-Tyr(SO3 H)-Met-Gly-Trp-Met-Asp-Phe-NH2]	high affinity	high affinity	half-life [1]: less than 1 hour
gastrin		lower affinity	
CCK-8d: the corresponding desulphated fragment		lower affinity	
O=C(Nc1ccc(Cl)cc1)NC1N=C(c2ccccc2)c2ccccc2-n2cnnc21 (centres unmarked) [Compound 11, N-(4-Chlorophenyl)-N'-(6-phenyl-4H-[1,2,4]triazolo-[4,3-a][1,4]benzodiazepin-4-yl)urea]			IC50 (CCK receptor (pancreas)): 120 nM; IC50 (CCK receptor (brain)): 480 nM
Cc1nnc2n1-c1ccccc1C(c1ccccc1)=NC2NC(=O)Nc1ccc(Cl)cc1 (centres unmarked) [Compound 12, N-(4-Chlorophenyl)-N'-(1-methyl-6-phenyl-4H-[1,2,4]triazolo[4,3-a][1,4]benzodiazepin-4-yl)urea]			IC50 (CCK receptor (pancreas); rat pancreas membranes, 125I-CCK-33, 37° C., 30 minutes): 82 nM; IC50 (CCK receptor (brain)): 80 nM
CCK-4	high affinity	lower affinity	
O=S(=O)(F)Cc1ccccc1 [phenylmethane sulfonyl fluoride]			effect on the 125I-CCK receptor binding assay (CCK receptor (pancreas)): no effect
c1cnc2c(c1)ccc1cccnc12 [o-phenanthroline]			effect on the 125I-CCK receptor binding assay (CCK receptor (pancreas)): no effect
CSCC[C@H](NC(=O)[C@H](Cc1c[nH]c2ccccc12)NC(=O)CCNC(=O)OC(C)(C)C)C(=O)N[C@@H](CC(=O)O)C(=O)N[C@@H](Cc1ccccc1)C(N)=O [pentagastrin]	high affinity		

Reference: patent US5185331A, “Triazolobenzodiazepines” (Merck & Co., Inc., priority 1991, dated 1993)
